Experimental data published in patent US20050239873A1 (priority 1999, published 2005).

What was measured:
[1] = test system: mitochondria from TABX1A cells; assay: Swelling of isolated mitochondria (absorbance at 540 nm); set-up: species or system murine; conditions: even at much higher concentrations
U266 = assay: Propidium iodide exclusion / flow cytometry cytotoxicity; format: cell-based, human; conditions: 5 to about 20 μg/ml
Experimental: (§1) Cell survival was assayed by exclusion of propidium iodide (PI; 10 μg/ml) by unfixed cells. Annexin V-FITC (Pharmingen) or 3, 3′-dihexyloxacarbocyanine iodide (DiOC6(3); Molecular Probes) staining was analyzed together with PI to discriminate early apoptotic cells. Apoptotic cells were also measured as sub-G1 events among ethanol-fixed cells stained with 10 μg/ml PI. All cell samples were analyzed using a benchtop FACSCalibur™ (Becton Dickinson, San Jose, Calif.). Flow data were analyzed using MultiCycle AV software (Phoenix Flow Systems). For intracellular pH measurements, cell pellets were washed once and resuspended in 2 ml of HEPES-buffered medium (no phenol red and no serum). Carboxy-SNARF-1-AM (Molecular Probes, 1 mM stock in DMSO, stored at −20° C.) was added to a final concentration of 10 μM, and the cells were incubated for 30 min at 37° C. Following incubation with SNARF, cells were sedimented and the pellets were held on ice. Immediately before analysis, pellets were resuspended in […] (HBSS; experimental buffer) or high-[K+] buffer containing nigericin (calibration samples).

NCI-H929 = assay: as above; format: cell-based, human; conditions: 5 to about 20 μg/ml
Experimental: as §1

Bcl-xLΔC20 = Bcl-xLΔC20 (Homo sapiens, UniProt Q07817); assay: Calcein leakage from large unilamellar vesicles (pore formation); format: biochemical
Experimental: In this example the ability of antimycin A to prevent pore formation by BCl-xL was tested. […] Recombinant human BCl-xL lacking the C-terminal 20-residue membrane anchor sequence, Bcl-xLΔC20, forms pores in large unilamellar vesicles. A reporter, calcein, can leak out of the vesicles through these pores.
Briefly, a dry film of lipid was resuspended in an aqueous solution containing 40 mM calcein (Molecular Probes, Eugene, Oreg.), 25 mM KCl and 10 mM HEPES (pH 7.0). After 5 freeze-thaw cycles, the lipidic solution was extruded through 2 Nucleopore filters, 0.1 μm pore diameter. […] The size of the vesicle suspension was measured by a Coulter N4 Plus-Sizer to confirm that the mean diameter of the vesicle sample was close to the expected size (100 nm). The osmolalities of all solutions were measured in a cryoscopic osmometer (Wescor Inc., Logan, Utah) and adjusted to 0.21 Osmol/kg by the addition of sodium chloride, as necessary.
Calcein leakage was determined by adding 2-4 μg of purified Bcl-xLΔC20 (5 μg/ml, 161 nM) to a solution of 100 mM NaCl, 10 mM HEPES (pH 5.0) containing the large unilamellar vesicles (50 μM final lipid concentration) described above. Changes in the fluorescence intensity were measured in an Aminco-SLM spectrofluorimeter. […] The 100% fluorescence level for leakage was obtained by detergent lysis (0.1% Triton X-100) of the vesicles containing entrapped calcein.

plasma proteins [2] = assay: Binding to plasma proteins (ultrafiltration); format: in vitro ADME, rat; conditions: presence of NaF+EDTA, 1000 ng/ml
plasma proteins [3] = assay: Binding to plasma proteins (ultrafiltration); format: in vitro ADME, human; conditions: presence of NaF+EDTA, 1000 ng/ml
Experimental: (§2) Solutions of 2-OMe antimycin A3 were diluted with plasma (dog or human) containing NaF+EDTA to final concentrations of 1.0 or 0.2 μg/ml. Controls were diluted with water to the same final concentrations. These preparations were incubated at 37° C. for 20 min, at which time portions were taken and placed in the sample reservoirs of Amicon Centrifree® ultrafiltration systems (Millipore Co., Bedford, Mass.). At 37° C., the filter systems were centrifuged until the reservoirs were dry. From each filtrate, portions were taken for analysis by HPLC. The amounts present were designated as “free drug” (F). The concentrations of the unfiltered solutions were also determined by triplicate analyses. This amount represented the “total drug” concentration (T). The percentage of 2-OMe antimycin A3 bound to plasma proteins was calculated by the following formula: % bound=((T−F)/T)×100

plasma proteins [4] = assay: Binding to plasma proteins (ultrafiltration); format: in vitro ADME, dog; conditions: presence of NaF+EDTA, 1000 ng/ml
Experimental: as §2
Similar experiments were performed for 2-OMe antimycin A3 in dog or rat plasma in the absence of NaF/EDTA.

[5] = test system: unfractionated human bone marrow cells; assay: Toxicity in normal bone marrow cells (PI and annexin V, flow cytometry); format: cell-based; conditions: 5-20 μg/ml, 24 to 48 h
Experimental: The RPMI-8226 cell line was supplied by W. Dalton (Univ. Arizona). U266 and H929 cell lines were obtained from the American Type Culture Collection (Rockville, Md.). Cell lines were grown in RPMI 1640 (Gibco, Grand Island, N.Y.) supplemented with 5% fetal bovine serum (Hyclone, Logan, Utah). Normal bone marrow samples were obtained from allogeneic transplant donors at the Fred Hutchison Cancer Research Center, Seattle, Wash., with appropriate patient consent and Internal Review Board approval. Primary cells were maintained in Iscove's medium (Gibco) supplemented with 10% bovine calf serum, 100 ng/ml stem cell factor (Amgen, Thousand Oaks, Calif.), and 50 ng/ml interleukin-3 (Biosource, Camarillo, Calif.).
Cell survival was assayed by exclusion of propidium iodide (PI; 10 μg/ml) by unfixed cells. Annexin V-FITC (Pharmingen) or 3, 3′-dihexyloxacarbocyanine iodide (DiOC6(3); Molecular Probes) staining was analyzed together with PI to discriminate early apoptotic cells. Apoptotic cells were also measured as sub-G1 events among ethanol-fixed cells stained with 10 μg/ml PI. All cell samples were analyzed using a benchtop FACSCalibur™ (Becton Dickinson, San Jose, Calif.). Flow data were analyzed using MultiCycle AV software (Phoenix Flow Systems). For intracellular pH measurements, cell pellets were washed once and resuspended in 2 ml of HEPES-buffered medium (no phenol red and no serum). […]

Bcl-xLΔC20, sequence (Q07817 1-213 limits assumed, stated change not applied): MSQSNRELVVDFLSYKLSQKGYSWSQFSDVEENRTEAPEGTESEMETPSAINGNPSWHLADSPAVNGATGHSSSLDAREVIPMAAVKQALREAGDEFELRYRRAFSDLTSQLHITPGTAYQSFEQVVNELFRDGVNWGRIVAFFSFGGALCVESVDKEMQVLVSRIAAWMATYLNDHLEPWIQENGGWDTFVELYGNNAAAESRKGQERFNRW

| Compound | Protein binding, Rat (plasma proteins [2]) [%] | Protein binding, Human (plasma proteins [3]) [%] | Protein binding, Dog (plasma proteins [4]) [%] | other results |
| --- | --- | --- | --- | --- |
| antimycin A |  |  |  | mitochondrial swelling [1]: did not exhibit similar permeability changes and swelling; sensitivity (PI exclusion) (U266): sensitive; sensitivity (PI exclusion) (NCI-H929): sensitive; Bcl-xL pore-forming activity (calcein leakage) (Bcl-xLΔC20; 12 μM): completely blocked |
| CCCC[C@H]1C(=O)OC(C)[C@H](NC(=O)c2cccc(NC=O)c2OC)C(=O)O[C@@H](C)C1OC(=O)CC(C)C (stereo partly drawn) [2-OMeA3, Antimycin A3 methyl ether] | 99.8 | 99.9 | 99.3 | inhibition of Bcl-xL pore formation, liposome permeability assay (Bcl-xLΔC20): almost as well as antimycin A3 |
| CCCCCC[C@H]1C(=O)O[C@H](C)[C@H](NC(=O)c2cccc(NC=O)c2OC)C(=O)O[C@@H](C)[C@@H]1OC(=O)CC(C)C [2-OMeA1, 2-methoxy antimycin A1] | >99.9 | 99.5 | 99.8 |  |
| 2-methoxy antimycin A [2-OMeA] |  |  |  | sensitivity of primary lymphoid and myeloid bone marrow cell subpopulations [5]: insensitive |
